{"source": "paper PMC3920478", "about": "“Small molecule-mediated refolding and activation of myosin motor function” (eLife, 2014)", "key": {"[1]": {"tested_on": "neonatal rat cardiomyocytes (NRCM)", "experiment": "Neonatal rat cardiomyocytes: cell size, MHC and ANP expression at 37°C or 42°C", "type": "cell-based", "settings": "10 µM, 24 hr", "experimental": "Cell culture media, fetal bovine serum (FBS), and horse serum (HS) were purchased from Biochrome (Berlin, Germany); all other chemicals were from Sigma-Aldrich (St Louis, MO). Isolation of neonatal rat cardiomyocytes (NRCM) was performed by enzymatic digestion of neonatal rat hearts as described previously ([Hilfiker-Kleiner et al., 2004]). NRCM were cultured in plating medium containing 5% FBS and 10% HS for 24 hr followed by serum-starvation for 48 hr. NRCM were cultured in serum-free medium containing either EMD (10 µM) or the corresponding volume of the solvent DMSO (1 µl/ ml) for additional 24 hr at 37°C or 42°C with 5% CO2.\nFor indirect immunofluorescence NRCM were fixed with 95% ethanol. Monoclonal antibodies against sarcomeric α-actinin (1:50; Sigma-Aldrich) or sarcomeric Myosin heavy chain (1:50; Santa Cruz Biotechnology, Dallas, TX) were used. Fluor-488 goat anti-mouse IgG (1:250; Jackson ImmunoResearch, West Grove, PA) or Alexa Fluor 639 goat anti-rabbit (1:250; Jackson ImmunoResearch) was employed as secondary antibody. Immunofluorescence was detected by the use of the AxioVison Rel 4.1 package (Carl Zeiss GmbH).\nRealtime measurement of PCR amplification was performed using the Stratagene MX4000 multiplex QPCR System with the SYBR green dye method (Brilliant SYBR Green Mastermix-Kit, Stratagene, La Jolla, CA) as described ([Hilfiker-Kleiner et al., 2010]; [Hoch et al., 2011]). Total RNA was extracted from NRCM using Trizol reagent according to the manufactures protocol (Invitrogen, Carlsbad, CA). Reverse transcriptase (RT)-PCR was performed of ANP and b2m using 2 μg of total RNA. The primer sequences and PCR conditions are described in Table 3. PCR products were size-fractionated by 2% agarose gel electrophoresis.\nProtein expression in NRCM was determined by standard immunoblotting techniques under denaturing conditions, as described previously ([Hilfiker-Kleiner et al., 2004]). A monoclonal primary antibody against sarcomeric MHC (1:1.000; Abcam, Cambridge, UK) was used and signal detection was achieved by the usage of a horseradish peroxydase-conjugated secondary antibody (GE) and ECL-detection. PonceauS staining was carried out and used as a loading control."}, "Dd myosin-5 motor domain": {"target": "T1, Dd myosin-5 motor domain (Dictyostelium discoideum, UniProt P54697)", "T1 sequence (P54697 1-821 limits assumed)": "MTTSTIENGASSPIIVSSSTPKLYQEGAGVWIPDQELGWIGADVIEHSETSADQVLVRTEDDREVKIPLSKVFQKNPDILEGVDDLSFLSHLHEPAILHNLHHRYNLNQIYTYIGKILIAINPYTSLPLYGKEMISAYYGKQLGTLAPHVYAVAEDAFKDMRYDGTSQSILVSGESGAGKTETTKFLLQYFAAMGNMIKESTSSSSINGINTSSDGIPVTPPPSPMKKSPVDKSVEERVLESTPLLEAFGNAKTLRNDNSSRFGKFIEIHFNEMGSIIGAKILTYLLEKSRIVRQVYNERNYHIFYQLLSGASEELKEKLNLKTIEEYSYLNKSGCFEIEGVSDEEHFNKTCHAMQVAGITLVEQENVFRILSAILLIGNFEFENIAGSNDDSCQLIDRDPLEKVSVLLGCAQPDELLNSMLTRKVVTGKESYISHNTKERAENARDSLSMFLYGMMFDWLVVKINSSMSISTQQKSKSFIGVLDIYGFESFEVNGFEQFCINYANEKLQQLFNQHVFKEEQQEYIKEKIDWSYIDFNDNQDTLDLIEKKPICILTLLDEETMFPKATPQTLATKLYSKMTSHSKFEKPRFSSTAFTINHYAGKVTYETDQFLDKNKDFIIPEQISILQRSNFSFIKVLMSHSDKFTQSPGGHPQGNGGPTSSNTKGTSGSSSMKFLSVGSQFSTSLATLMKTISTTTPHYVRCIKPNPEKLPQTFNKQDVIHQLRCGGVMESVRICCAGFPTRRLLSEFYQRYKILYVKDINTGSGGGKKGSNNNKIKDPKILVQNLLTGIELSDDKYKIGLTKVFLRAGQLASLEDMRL", "experiment": "Direct binding to motor domain construct", "from_the_text": "Proteolytic fragments were further purified by actin-coprecipitation."}, "Dd myosin-2 motor domain": {"target": "T2, Dd myosin-2 motor domain (Dictyostelium discoideum, UniProt P08799)", "T2 sequence (P08799 1-761 limits assumed)": "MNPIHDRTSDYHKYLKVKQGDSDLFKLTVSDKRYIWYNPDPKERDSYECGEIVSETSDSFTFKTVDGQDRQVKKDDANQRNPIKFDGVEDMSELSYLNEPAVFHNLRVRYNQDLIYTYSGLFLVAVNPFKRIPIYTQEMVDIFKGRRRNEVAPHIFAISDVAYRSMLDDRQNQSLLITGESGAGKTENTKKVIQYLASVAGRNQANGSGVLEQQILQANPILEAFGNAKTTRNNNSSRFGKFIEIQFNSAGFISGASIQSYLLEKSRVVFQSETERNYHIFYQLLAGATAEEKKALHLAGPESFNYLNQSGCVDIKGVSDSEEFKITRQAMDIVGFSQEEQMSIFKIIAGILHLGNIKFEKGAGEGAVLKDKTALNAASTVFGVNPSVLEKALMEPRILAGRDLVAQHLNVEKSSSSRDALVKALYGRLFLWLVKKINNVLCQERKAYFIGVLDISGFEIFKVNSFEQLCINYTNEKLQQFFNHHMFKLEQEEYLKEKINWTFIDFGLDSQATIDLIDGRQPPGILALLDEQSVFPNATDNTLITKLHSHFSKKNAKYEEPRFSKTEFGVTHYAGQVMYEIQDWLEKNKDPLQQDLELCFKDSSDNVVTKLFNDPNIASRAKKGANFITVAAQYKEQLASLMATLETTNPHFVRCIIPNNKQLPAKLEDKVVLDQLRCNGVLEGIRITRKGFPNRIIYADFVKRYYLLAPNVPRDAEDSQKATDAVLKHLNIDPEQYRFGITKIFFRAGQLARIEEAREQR", "experiment": "In vitro motility assay (actin filament sliding)", "type": "biochemical", "from_the_text": "In addition, the fraction of moving filaments increased from <75% to >95%. […] In initial experiments, we determined the minimal concentration of α-actinin molecules that generate sufficient load to stall the movement of actin filaments for a given surface density of myosin heads. […] Next, we generated in vitro motility flow cells with actin filaments held at stall force. […] The time-dependence of the recovery of motile activity is best fit by a hyperbola. A plateau value of 0.4 μm s^−1 is reached after more than 2 hr (Figure 1G).\nActin-sliding motility was performed at 20°C using an Olympus IX81 (Olympus, Hamburg, Germany) inverted fluorescence microscope as described previously ([Fujita-Becker et al., 2005]). Average sliding velocities were determined from the Gaussian distribution of automatically tracked actin filaments using DiaTrack 3.01 (Semasopht, Chavannes, Switzerland) and Origin 7.0 (OriginLab Corporation, Northampton, MA). Errors indicate standard deviations."}}, "note": "Entries after “also recorded” stand apart in the source; their conditions may differ."}
{"compound": "COc1ccc(C(=O)N2CCCc3cc(C4=NNC(=O)SC4C)ccc32)cc1OC", "note": "(stereo not drawn) [EMD 57033]", "values": [{"measurement": "ANP mRNA expression", "setting": "[1]; 37°C", "value": "not significantly changed; also recorded: does not affect expression of ANP mRNA"}, {"measurement": "Total cardiac MHC protein content", "setting": "[1]; 37°C or 42°C", "value": "without significant changes in total cardiac MHC protein content; also recorded: does not significantly alter MHC protein levels"}, {"measurement": "β-cardiac MHC mRNA expression", "setting": "[1]; 37°C, vs DMSO", "value": "reduction in β-cardiac MHC transcripts; also recorded: significantly reduces"}, {"measurement": "ANP mRNA expression induced by hyperthermic stress", "setting": "[1]; 42°C", "value": "completely suppressed; also recorded: fully suppressed"}, {"measurement": "β-cardiac MHC mRNA downregulation", "setting": "[1]; 42°C", "value": "significantly more pronounced"}, {"measurement": "α-cardiac MHC mRNA expression", "setting": "[1]; vs DMSO", "value": "without significant changes; also recorded: does not alter α-cardiac MHC mRNA expression"}, {"measurement": "Direct binding to the motor domain", "setting": "Dd myosin-5 motor domain", "value": "Direct binding of EMD 57033 to the motor domain was observed"}, {"measurement": "Increase of actin filament sliding velocity", "setting": "Dd myosin-2 motor domain; 100 µM EMD 57033", "value": 1.6, "unit": "fold"}, {"measurement": "Average sliding velocity of actin filaments", "setting": "Dd myosin-2 motor domain; in presence of 100 µM EMD 57033", "value": "1.35 ± 0.2", "unit": "µm s^−1"}]}
